Results published in patent publication US12227498B2, “Heterocyclic amine derivative and pharmaceutical composition comprising same” (Daewoong Pharmaceutical Co., Ltd., priority 2018, dated 2025).

Columns and labels:
[1] = target: T1, ITK (Homo sapiens, UniProt Q08881); assay: Inhibitory activity against ITK, ADP-Glo + ITK Kinase enzyme system kit (Promega); type: biochemical; conditions: ITK enzyme 0.4 ng/μl; 15 min preincubation at room temperature; 1 hour at 30° C.; luminescence; duplicate
T1 construct: purchased Promega Corporation
T1 sequence (Q08881 1-620): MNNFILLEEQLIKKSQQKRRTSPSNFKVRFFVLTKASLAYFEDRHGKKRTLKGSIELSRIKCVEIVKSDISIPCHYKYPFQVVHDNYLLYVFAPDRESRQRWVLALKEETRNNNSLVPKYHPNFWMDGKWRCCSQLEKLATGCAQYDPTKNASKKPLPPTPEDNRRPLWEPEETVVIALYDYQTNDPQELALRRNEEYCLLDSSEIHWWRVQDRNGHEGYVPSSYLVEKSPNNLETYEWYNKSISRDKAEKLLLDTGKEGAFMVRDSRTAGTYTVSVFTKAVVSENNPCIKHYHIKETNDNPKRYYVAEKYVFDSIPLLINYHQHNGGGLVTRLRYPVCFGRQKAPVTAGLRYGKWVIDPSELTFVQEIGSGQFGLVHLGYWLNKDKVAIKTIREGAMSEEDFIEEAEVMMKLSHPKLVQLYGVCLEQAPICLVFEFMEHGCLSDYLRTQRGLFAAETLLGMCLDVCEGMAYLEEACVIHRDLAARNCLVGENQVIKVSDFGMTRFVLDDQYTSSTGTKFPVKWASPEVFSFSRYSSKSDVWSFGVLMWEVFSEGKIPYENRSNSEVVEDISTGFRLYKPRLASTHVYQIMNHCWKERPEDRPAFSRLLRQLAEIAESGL
Experimental: (§1) Inhibitory activities against BTK and ITK were measured for the compounds prepared in the above Examples as follows.
The inhibitory activity against ITK was evaluated using ‘ADP-Glo™+ITK Kinase enzyme system’ kit (Promega Corporation). […] To the plate on which reactions were completed, 5 μl of substrate and 5 μl of ATP prepared so as to have a final concentration of […] were added and then allowed to react at 30° C. for 1 hour. All wells of the plate were treated with 25 μl of ADP-Glo™ reagent and then allowed to react at 30° C. for 40 minutes. After that, all wells were treated with 50 μl of kinase detection buffer, and then allowed to react at 30° C. for 30 minutes under light shielding conditions. For the plate on which all reactions were completed, luminescence was measured and the results were calculated. Evaluation was carried out in duplicate, and negative control and positive control were calculated depending on whether or not the enzyme was added without treatment of the compound. The IC50 was calculated based on the calculated values.

[2] = target: T2, BTK (Homo sapiens, UniProt Q06187); assay: Inhibitory activity against BTK, ADP-Glo + BTK Kinase enzyme system kit (Promega); type: biochemical; conditions: BTK enzyme 1 ng/μl; ATP 10 µM; 15 min preincubation at room temperature; 1 hour at 30° C.; luminescence; duplicate
T2 construct: purchased Promega Corporation
Experimental: as §1
The inhibitory activities against BTK were evaluated using ‘ADP-Glo™+BTK Kinase enzyme system’ kit (Promega Corporation). […] 5 μl of substrate and 5 μl of ATP prepared so as to have a final concentration of 10 µM were added to the plate on which reactions were completed, and then allowed to react at 30° C. for 1 hour. All wells of the plate were treated with 25 μl of ADP-Glo™ reagent and allowed to react at 30° C. for 40 minutes. After that, all wells were treated with 50 μl of kinase detection buffer, and then reacted at 30° C. for 30 minutes under light shielding conditions. For the plate on which all reactions were completed, luminescence was measured and the results were calculated. Evaluation was carried out in duplicate, and negative control and positive control were calculated depending on whether or not the enzyme was added without treatment of the compound. The IC50 was calculated based on the calculated values.

T2 sequence (Q06187 whole entry): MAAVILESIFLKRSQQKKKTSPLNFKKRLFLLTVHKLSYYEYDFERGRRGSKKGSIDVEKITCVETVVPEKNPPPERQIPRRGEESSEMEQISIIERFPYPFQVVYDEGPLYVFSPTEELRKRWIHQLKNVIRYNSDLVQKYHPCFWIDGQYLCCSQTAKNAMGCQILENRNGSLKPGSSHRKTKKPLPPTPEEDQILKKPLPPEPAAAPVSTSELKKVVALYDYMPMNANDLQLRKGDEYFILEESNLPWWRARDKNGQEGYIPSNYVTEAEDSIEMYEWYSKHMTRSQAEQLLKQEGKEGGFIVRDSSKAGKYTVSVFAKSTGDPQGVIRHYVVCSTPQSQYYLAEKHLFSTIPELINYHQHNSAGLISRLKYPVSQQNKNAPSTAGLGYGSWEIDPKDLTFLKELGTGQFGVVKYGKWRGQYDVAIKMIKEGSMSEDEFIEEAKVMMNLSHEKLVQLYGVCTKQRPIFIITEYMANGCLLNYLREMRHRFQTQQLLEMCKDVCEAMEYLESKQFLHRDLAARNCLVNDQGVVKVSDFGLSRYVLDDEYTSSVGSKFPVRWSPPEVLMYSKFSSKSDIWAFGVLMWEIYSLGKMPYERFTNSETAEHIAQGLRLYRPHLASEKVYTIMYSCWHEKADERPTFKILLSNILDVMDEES

Row | Structure (SMILES) | IC50 [1] [nM] | IC50 [2] [nM]
1 | C=CC(=O)N1CCC[C@H](N(C)c2cc(CN3CCOCC3)cc(Nc3ncc(C)s3)n2)C1 [Example 26, (S)-1-(3-(methyl (6-((5-methylthiazol-2-yl)amino)-4-(morpholinomethyl)pyridin-2-yl)amino)piperidin-1-yl) prop-2-en-1-one] | 17.7 | 2.2
2 | C=CC(=O)N1CC2(CC(Nc3cc(CN4CCOCC4)cc(Nc4ncc(C)s4)n3)C2)C1 [Example 30, 1-(6-((6-((5-methylthiazol-2-yl)amino)-4-(morpholinomethyl)pyridin-2-yl)amino)-2-azaspiro[3.3]heptan-2-yl) prop-2-en-1-one] | 47 | 67.1
3 | C=CC(=O)N1CCC[C@H](Nc2cc(CN3CCN(CCC#N)CC3)cc(Nc3ncc(C)s3)n2)C1 [Example 34, (S)-3-(4-((2-((1-acryloylpiperidin-3-yl)amino)-6-((5-methylthiazol-2-yl)amino)pyridin-4-yl)methyl)piperazin-1-yl) propanenitrile] | 1.7 | 1.1
4 | C=CC(=O)N1CCC[C@H](Nc2cc(CN3CCOCC3)cc(Nc3nccs3)n2)C1 [Example 51, (S)-1-(3-(4-(morpholinomethyl)-6-(thiazol-2-ylamino)pyridin-2-ylamino)piperidin-1-yl) prop-2-en-1-one] | ~1000 | ~1000
5 | C=CC(=O)N1CCC(Nc2cc(CN3CCOCC3)cc(Nc3ncc(C)s3)n2)CC1 [Example 3, 1-(4-((6-((5-methylthiazol-2-yl)amino)-4-(morpholinomethyl)pyridin-2-yl)amino)piperidin-1-yl) prop-2-en-1-one] | 9.1 | 10.3
6 | C=CC(=O)N1CCC[C@H](Nc2cc(CN3CCN(CC)CC3)cc(Nc3ncc(C)s3)n2)C1 [Example 32] | 5.6 | 3
7 | C=CC(=O)N1CCC[C@H](Nc2nc(CN3CCOCC3)cc(Nc3ncc(C)s3)n2)C1 [Example 21, (S)-1-(3-((4-((5-methylthiazol-2-yl)amino)-6-(morpholinomethyl)pyrimidin-2-yl)amino)piperidin-1-yl) prop-2-en-1-one] | 1.9 | 1.3
8 | C=CC(=O)N1CCC[C@H](Nc2cc(OC3CCN(C)CC3)cc(Nc3ncc(C)s3)n2)C1 [Example 33, (S)-1-(3-((4-((1-methylpiperidin-4-yl)oxy)-6-((5-methylthiazol-2-yl)amino)pyridin-2-yl)amino)piperidin-1-yl) prop-2-en-1-one] | 3.9 | 1.8
9 | C=CC(=O)N1CCCC(Oc2cc(CN3CCOCC3)cc(Nc3ncc(C)s3)n2)C1 (stereo not shown) [Example 12, 1-(3-((6-((5-methylthiazol-2-yl)amino)-4-(morpholinomethyl)pyridin-2-yl)oxy)piperidin-1-yl) prop-2-en-1-one] | 2 | 2
10 | C=CC(=O)N1CCC[C@H](Nc2cc(C#N)cc(Nc3ncc(C)s3)n2)C1 [Example 38] | 2.6 | 1.6
11 | C/C=C/C(=O)N1CCC(Nc2cc(CN3CCOCC3)nc(Nc3ncc(C)s3)n2)C1 (stereo not shown) [Example 9, (E)-1-(3-((2-((5-methylthiazol-2-yl)amino)-6-(morpholinomethyl)pyrimidin-4-yl)amino)pyrrolidin-1-yl) but-2-en-1-one] | > 1000 | > 1000
12 | C=CC(=O)N1CCC[C@H](Nc2cc(-c3ccccc3)cc(Nc3ncc(C)s3)n2)C1 [Example 39, (S)-1-(3-((6-((5-methylthiazol-2-yl)amino)-4-phenylpyridin-2-yl)amino)piperidin-1-yl) prop-2-en-1-one] | 4.8 | 7.5
13 | C=CC(=O)N1CCC[C@H](Nc2cc(CN3CCN(CC)CC3)cc(Nc3ncc(C)s3)n2)C1 [Example 42, (S)-1-(3-((4-((4-ethylpiperazin-1-yl)methyl)-6-((5-methylthiazol-2-yl)amino)pyridin-2-yl)amino)piperidin-1-yl) prop-2-en-1-one] | 2.2 | 2.5
14 | C=CC(=O)N1CCC[C@H](Nc2cc(CN3CCN(C)CC3)cc(Nc3ncc(C)s3)n2)C1 [Example 43] | 2.1 | 1.6
15 | Cc1cnc(Nc2cc(CN3CCOCC3)cc(N[C@H]3CCCN(C(=O)/C=C/Cl)C3)n2)s1 [Example 46, (S,E)-3-chloro-1-(3-(6-(5-methylthiazol-2-ylamino)-4-(morpholinomethyl)pyridin-2-ylamino)piperidin-1-yl) prop-2-en-1-one] | 31.8 | 5.2
16 | C#CC(=O)N1CCC[C@H](Nc2cc(OC3CCN(C)CC3)cc(Nc3ncc(C)s3)n2)C1 [Example 40, (S)-1-(3-((4-((1-methylpiperidin-4-yl)oxy)-6-((5-methylthiazol-2-yl)amino)pyridin-2-yl)amino)piperidin-1-yl) prop-2-yn-1-one] | 10.8 | 10.3
17 | C=CC(=O)N1CCCC(Nc2cc(CN3CCOCC3)cc(Nc3ncc(C)s3)n2)C1 (stereo not shown) [Example 1, 1-(3-((6-((5-methylthiazol-2-yl)amino)-4-(morpholinomethyl)pyridin-2-yl)amino)piperidin-1-yl) prop-2-en-1-one] | 4.1 | 4.7
18 | C=CC(=O)N1CC[C@H](Nc2cc(CN3CCOCC3)cc(Nc3ncc(C)s3)n2)C1 [Example 7, (S)-1-(3-((6-((5-methylthiazol-2-yl)amino)-4-(morpholinomethyl)pyridin-2-yl)amino)pyrrolidin-1-yl) prop-2-en-1-one] | 3.5 | 3.6
19 | C=CC(=O)N1CCC[C@H](Nc2nc(CN3CCCCC3)cc(Nc3ncc(C)s3)n2)C1 [Example 31, (S)-1-(3-((4-((5-methylthiazol-2-yl)amino)-6-(piperidin-1-ylmethyl)pyrimidin-2-yl)amino)piperidin-1-yl) prop-2-en-1-one] | 15.6 | 8.8
20 | CC#CC(=O)N1CCC(Nc2cc(CN3CCOCC3)cc(Nc3ncc(C)s3)n2)C1 (stereo not shown) [Example 14, 1-(3-((6-((5-methylthiazol-2-yl)amino)-4-(morpholinomethyl)pyridin-2-yl)amino)pyrrolidin-1-yl) but-2-yn-1-one] | 49.1 | 3.3
21 | CC#CC(=O)N1CCC2CCN(c3cc(CN4CCOCC4)cc(Nc4ncc(C)s4)n3)CC21 (stereo not shown) [Example 29, 1-(6-(6-((5-methylthiazol-2-yl)amino)-4-(morpholinomethyl)pyridin-2-yl)octahydro-1H-pyrrolo[2,3-c]pyridin-1-yl) but-2-yn-1-one] | 50.4 | 18.5
22 | C=CC(=O)N1CCC2CCN(c3cc(CN4CCOCC4)cc(Nc4ncc(C)s4)n3)CC21 (stereo not shown) [Example 28, 1-(6-(6-((5-methylthiazol-2-yl)amino)-4-(morpholinomethyl)pyridin-2-yl)octahydro-1H-pyrrolo[2,3-c]pyridin-1-yl) prop-2-en-1-one] | 31.7 | 8.8
23 | C=CC(=O)N1CCC[C@H](Nc2cc(CN3CCN(CCOC)CC3)cc(Nc3ncc(C)s3)n2)C1 [Example 22] | 1 | 1.2
24 | C=CC(=O)N1CCC(Oc2cc(CN3CCOCC3)cc(Nc3ncc(C)s3)n2)CC1 [Example 11, 1-(4-((6-((5-methylthiazol-2-yl)amino)-4-(morpholinomethyl)pyridin-2-yl)oxy)piperidin-1-yl) prop-2-en-1-one] | 7.8 | 8.5
25 | CC#CC(=O)N1CCC[C@H](Nc2cc(CN3CCOCC3)cc(Nc3ncc(C)s3)n2)C1 [Example 18, (S)-1-(3-((6-((5-methylthiazol-2-yl)amino)-4-(morpholinomethyl)pyridin-2-yl)amino)piperidin-1-yl) but-2-yn-1-one] | 50.5 | 5.2
26 | Cc1cnc(Nc2cc(CN3CCOCC3)cc(N[C@H]3CCCN(C(=O)CCCl)C3)n2)s1 [Example 45, (S)-3-chloro-1-(3-((6-((5-methylthiazol-2-yl)amino)-4-(morpholinomethyl)pyridin-2-yl)amino)piperidin-1-yl) propan-1-one] | 91.6 | 30.8
